Reference: patent publication US9447100B2, “Substituted pyrazolo[1,5-A] pyrimidines as calcium receptor modulating agents” (Takeda Pharmaceutical Company Limited, priority 2002, dated 2016)
Structures can show the parent of a compound that is named as a salt.

SMILES	melting point [°C]
O=C(NC12CC3CC(CC(C3)C1)C2)c1cnn2c1NC(c1cccc(Cl)c1)CC2C(F)(F)F (stereo not shown) [Example 282, N-(1-adamantyl)-5-(3-chlorophenyl)-7-(trifluoromethyl)-4,5,6,7-tetrahydropyrazolo[1,5-a]pyrimidine-3-carboxamide]	246 to 247
O=C(NCc1ccc(Oc2ccc(F)cc2)cc1)c1cnn2c1NC(c1ccccc1)CC2C(F)(F)F (stereo not shown) [Example 271, N-(4-(4-fluorophenoxy)benzyl)-5-phenyl-7-(trifluoromethyl)-4,5,6,7-tetrahydropyrazolo[1,5-a]pyrimidine-3-carboxamide]	169 to 172
Cc1nn2c(c1C(=O)NC(C)(C)c1ccc(Cl)cc1)NC(c1ccccc1)CC2(C)C (stereo not shown) (as salt: HCl) [Example 792, N-(1-(4-chlorophenyl)-1-methylethyl)-2,7,7-trimethyl-5-phenyl-4,5,6,7-tetrahydropyrazolo[1,5-a]pyrimidine-3-carboxamide]	204 to 205
CCC(CC)(Cc1ccc(Cl)cc1)NC(=O)c1cnn2c1NC(c1ccccc1)CC2(C)C (stereo not shown) [Example 699, N-(1-(4-chlorobenzyl)-1-ethylpropyl)-7,7-dimethyl-5-phenyl-4,5,6,7-tetrahydropyrazolo[1,5-a]pyrimidine-3-carboxamide]	156 to 157
CCC(CC)(NC(=O)c1cnn2c1NC(c1ccccc1)CC2(C)C)c1ccc(COC(C)=O)cc1 (stereo not shown) [Example 737, 4-(1-(((7,7-dimethyl-5-phenyl-4,5,6,7-tetrahydropyrazolo[1,5-a]pyrimidin-3-yl)carbonyl)amino)-1-ethylpropyl)benzyl acetate]	185 to 186
COc1ccc(C2CC(C(F)(F)F)n3ncc(C(=O)O)c3N2)cc1 (stereo not shown) [Example 25, 5-(4-methoxyphenyl)-7-(trifluoromethyl)-4,5,6,7-tetrahydropyrazolo[1,5-a]pyrimidine-3-carboxylic acid]	154 to 155
CCC(CC)(NC(=O)c1cnn2c1NC(c1ccccc1)CC2(C)C)c1cccc(Br)c1 (stereo not shown) [Example 613, N-(1-(3-bromophenyl)-1-ethylpropyl)-7,7-dimethyl-5-phenyl-4,5,6,7-tetrahydropyrazolo[1,5-a]pyrimidine-3-carboxamide]	195 to 196
CCC(C#N)NC(=O)c1cnn2c1N[C@H](c1ccccc1)C[C@@H]2C(F)(F)F (stereo in doubt) [Example 284, N-(1-cyanopropyl)-5-phenyl-7-(trifluoromethyl)-4,5,6,7-tetrahydropyrazolo[1,5-a]pyrimidine-3-carboxamide]	201 to 202
CCC1(NC(=O)c2cnn3c2NC(c2ccccc2)CC3(C)C)CCCCC1 (stereo not shown) [Example 431, N-(1-ethylcyclohexyl)-7,7-dimethyl-5-phenyl-4,5,6,7-tetrahydropyrazolo[1,5-a]pyrimidine-3-carboxamide]	166 to 167
CCC(CC)(NC(=O)c1cnn2c1NC(c1ccccc1)CC2(C)C)c1cc(-c2ccc(F)cc2)n(C)n1 (stereo not shown) [Example 726, N-(1-ethyl-1-(5-(4-fluorophenyl)-1-methyl-1H-pyrazol-3-yl)propyl)-7,7-dimethyl-5-phenyl-4,5,6,7-tetrahydropyrazolo[1,5-a]pyrimidine-3-carboxamide]	218 to 219
CCC(CC)(NC(=O)c1cnn2c1NC(c1ccccc1)CC2(C)C)c1ccc(Cl)c(Cl)c1 (stereo not shown) [Example 666, N-(1-(3,4-dichlorophenyl)-1-ethylpropyl)-7,7-dimethyl-5-phenyl-4,5,6,7-tetrahydropyrazolo[1,5-a]pyrimidine-3-carboxamide]	156 to 157
CCC1(CC)C[C@H](O)CN1C(=O)c1cnn2c1N[C@@H](c1ccccc1)CC2(C)C [Example 1117, (3S)-1-(((5R)-7,7-dimethyl-5-phenyl-4,5,6,7-tetrahydropyrazolo[1,5-a]pyrimidin-3-yl)carbonyl)-5,5-diethyl-3-pyrrolidinol]	249 to 251
Cc1cccc(C2CC(C)(C)n3nc(C)c(C(=O)O)c3N2)c1 (stereo not shown) [Example 946, 2,7,7-trimethyl-5-(3-methylphenyl)-4,5,6,7-tetrahydropyrazolo[1,5-a]pyrimidine-3-carboxylic acid]	146 to 148
CCOC(=O)c1ccc(C(CC)(CC)NC(=O)c2c(C)nn3c2N[C@@H](c2ccccc2)CC3(C)C)cc1 (as salt: HCl) [Example 1074, (5R)-ethyl 4-(1-ethyl-1-(((2,7,7-trimethyl-5-phenyl-4,5,6,7-tetrahydropyrazolo[1,5-a]pyrimidin-3-yl)carbonyl)amino)propyl) benzoate]	125 to 126
CCC(NC(=O)c1cnn2c1NC(c1ccccc1)CC2C(F)(F)F)c1ccccc1C (stereo not shown) [Example 399, N-(1-(2-methylphenyl)propyl)-5-phenyl-7-(trifluoromethyl)-4,5,6,7-tetrahydropyrazolo[1,5-a]pyrimidine-3-carboxamide]	225 to 226
CCC(CC)(NC(=O)c1cnn2c1NC(c1ccccc1)CC2(C)C)c1cccc(Cl)c1 (stereo not shown) [Example 614, N-(1-(3-chlorophenyl)-1-ethylpropyl)-7,7-dimethyl-5-phenyl-4,5,6,7-tetrahydropyrazolo[1,5-a]pyrimidine-3-carboxamide]	195 to 196

SMILES	melting point [°C]
O=C(c1cnn2c1NC(c1ccccc1)CC2C(F)(F)F)N1CCN(C(c2ccccc2)c2ccccc2)CC1 (stereo not shown) [Example 274, 3-((4-benzhydryl-1-piperazinyl)carbonyl)-5-phenyl-7-(trifluoromethyl)-4,5,6,7-tetrahydropyrazolo[1,5-a]pyrimidine]	181 to 182
CCC(CC)(NC(=O)c1cnn2c1NC(c1ccccc1)CC2(C)C)c1cccc(C(F)(F)F)c1 (stereo not shown) [Example 434, N-(1-ethyl-1-(3-(trifluoromethyl)phenyl)propyl)-7,7-dimethyl-5-phenyl-4,5,6,7-tetrahydropyrazolo[1,5-a]pyrimidine-3-carboxamide]	166 to 167
CC1(C)CC(c2ccccc2)Nc2c(C(=O)NC3(CO)CCCCC3)cnn21 (stereo not shown) [Example 644, N-(1-(hydroxymethyl)cyclo-hexyl)-7,7-dimethyl-5-phenyl-4,5,6,7-tetrahydropyrazolo[1,5-a]pyrimidine-3-carboxamide]	175 to 176
O=C(O)c1cnn2c1NC(c1ccco1)CC2C(F)(F)F (stereo not shown) [Example 29, 5-(2-furyl)-7-(trifluoromethyl)-4,5,6,7-tetrahydropyrazolo[1,5-a]pyrimidine-3-carboxylic acid]	156 to 157
O=C(On1nnc2ccccc21)c1cnn2c1N[C@H](c1ccccc1)C[C@@H]2C(F)(F)F (stereo in doubt) [Example 372, 1-(((5-phenyl-7-(trifluoromethyl)-4,5,6,7-tetrahydropyrazolo[1,5-a]pyrimidin-3-yl)carbonyl)oxy)-1H-1,2,3-benzotriazole]	216 to 217
CCC1(CC)C[C@@H](OC)CN1C(=O)c1cnn2c1N[C@@H](c1ccccc1)CC2(C)C [Example 1111, (5R)-3-(((4R)-2,2-diethyl-4-methoxy-1-pyrrolidinyl)carbonyl)-7,7-dimethyl-5-phenyl-4,5,6,7-tetrahydropyrazolo[1,5-a]pyrimidine]	148 to 150
CCc1ccc(C(CC)(CC)NC(=O)c2c(C)nn3c2N[C@@H](c2ccccc2F)CC3(C)C)cc1 (as salt: HCl) [Example 1089, (5R)-N-(1-ethyl-1-(4-ethylphenyl)propyl)-5-(2-fluorophenyl)-2,7,7-trimethyl-4,5,6,7-tetrahydropyrazolo[1,5-a]pyrimidine-3-carboxamide]	138 to 139
CCC(CC)(NC(=O)c1cnn2c1NC(c1ccccc1)CC2(C)C)c1ccc(Cl)nc1 (stereo not shown) [Example 573, N-(1-(6-chloro-3-pyridinyl)-1-ethylpropyl)-7,7-dimethyl-5-phenyl-4,5,6,7-tetrahydropyrazolo[1,5-a]pyrimidine-3-carboxamide]	223 to 224
CCc1ccc(C(CC)(CC)NC(=O)c2cnn3c2N[C@@H](c2ccccc2)CC3(C)C)cc1 (as salt: HCl) [Example 1051, (5R)-N-(1-ethyl-1-(4-ethylphenyl)propyl)-7,7-dimethyl-5-phenyl-4,5,6,7-tetrahydropyrazolo[1,5-a]pyrimidine-3-carboxamide]	149 to 150
CCC(CC)(NC(=O)c1c(C)nn2c1NC(c1ccccc1)CC2(C)C)c1ccc(SC)cc1 (stereo not shown) [Example 833, N-(1-ethyl-1-(4-(methylthio)phenyl)propyl)-2,7,7-trimethyl-5-phenyl-4,5,6,7-tetrahydropyrazolo[1,5-a]pyrimidine-3-carboxamide]	149 to 150
C=CCc1ccc(C(CC)(CC)NC(=O)c2cnn3c2NC(c2ccccc2)CC3(C)C)cc1 (stereo not shown) [Example 705, N-(1-(4-allylphenyl)-1-ethylpropyl)-7,7-dimethyl-5-phenyl-4,5,6,7-tetrahydropyrazolo[1,5-a]pyrimidine-3-carboxamide]	147 to 148
CCc1ccc(C2CC(C(F)(F)F)n3ncc(C(=O)O)c3N2)cc1 (stereo not shown) [Example 28, 5-(4-ethylphenyl)-7-(trifluoromethyl)-4,5,6,7-tetrahydropyrazolo[1,5-a]pyrimidine-3-carboxylic acid]	165 to 168
COC(=O)C1(NC(=O)c2cnn3c2N[C@H](c2ccccc2)C[C@@H]3C(F)(F)F)CCCCC1 (stereo in doubt) [Example 367, methyl 1-(((5-phenyl-7-(trifluoromethyl)-4,5,6,7-tetrahydropyrazolo[1,5-a]pyrimidin-3-yl)carbonyl)amino)cyclohexane carboxylate]	213 to 214
CCCOC(=O)c1ccc(C(CC)(CC)NC(=O)c2cnn3c2NC(c2ccccc2)CC3(C)C)cc1 (stereo not shown) [Example 762, propyl 4-(1-(((7,7-dimethyl-5-phenyl-4,5,6,7-tetrahydropyrazolo[1,5-a]pyrimidin-3-yl)carbonyl)amino)-1-ethylpropyl)benzoate]	162 to 163
CCC(CC)(NC(=O)c1cnn2c1NC(c1ccccc1)CC2C(F)(F)F)c1ccc(Br)cc1 (stereo not shown) [Example 397, N-(1-(4-bromophenyl)-1-ethylpropyl)-5-phenyl-7-(trifluoromethyl)-4,5,6,7-tetrahydropyrazolo[1,5-a]pyrimidine-3-carboxamide]	180 to 181
